30 molecules from US20240287080A1 (IDEAYA Biosciences Inc., priority 2021, published 2024) can be followed below.

Where only a bound is given, the exact number is not on record here.

The first experiment deals with T1, Pol theta (1-899) (Homo sapiens, UniProt O75417).
T1 construct: Pol theta (1-899) (5 nM) in assay buffer
T1 sequence (O75417 1-899): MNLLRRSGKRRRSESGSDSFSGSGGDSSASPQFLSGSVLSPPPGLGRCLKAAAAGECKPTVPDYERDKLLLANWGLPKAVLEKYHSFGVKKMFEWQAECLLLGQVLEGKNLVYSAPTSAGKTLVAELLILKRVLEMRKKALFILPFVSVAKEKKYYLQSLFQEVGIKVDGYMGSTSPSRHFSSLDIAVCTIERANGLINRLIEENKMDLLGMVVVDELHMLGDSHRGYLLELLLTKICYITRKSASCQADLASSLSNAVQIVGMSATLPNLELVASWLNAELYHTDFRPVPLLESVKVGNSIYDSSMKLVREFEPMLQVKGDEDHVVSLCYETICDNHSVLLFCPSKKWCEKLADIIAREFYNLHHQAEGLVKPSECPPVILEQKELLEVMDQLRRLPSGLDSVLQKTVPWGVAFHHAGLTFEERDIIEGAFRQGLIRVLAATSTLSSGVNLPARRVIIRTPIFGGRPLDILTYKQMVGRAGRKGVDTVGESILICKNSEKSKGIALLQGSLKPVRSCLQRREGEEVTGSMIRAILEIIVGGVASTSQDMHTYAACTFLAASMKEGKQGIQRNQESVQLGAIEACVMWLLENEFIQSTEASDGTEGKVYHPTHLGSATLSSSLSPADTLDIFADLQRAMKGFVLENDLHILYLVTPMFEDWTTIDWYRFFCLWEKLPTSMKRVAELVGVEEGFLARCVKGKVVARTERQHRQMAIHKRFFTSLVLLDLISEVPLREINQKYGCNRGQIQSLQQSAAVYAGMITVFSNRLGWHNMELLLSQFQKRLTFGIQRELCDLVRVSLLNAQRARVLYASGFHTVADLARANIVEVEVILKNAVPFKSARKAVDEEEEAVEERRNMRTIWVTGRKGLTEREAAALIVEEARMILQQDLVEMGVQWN
The experiment is described as follows: Pol theta ATPase activity, NADH oxidation-coupled enzymatic assay (ATPase NADH coupling: Standard Screening: hPolQ). The experiment is classed as biochemical. The note with it: Pol theta (1-899) 5 nM, NADH oxidation-coupled ATPase assay; compounds of Table 3. As to the method: The ability of the compounds of Formula (I) or Table 1 to inhibit ATPase activity of Pol theta (1-899) was determined using the assay described below. Pol Theta ATPase activity was determined by measuring the rate of ATP turn over in a NADH oxidation-coupled enzymatic assay. 10-point dilution series of compounds were used in a 384 well format for the inhibition assays. Pol theta (1-899) (5 nM) in assay buffer (20 mM Tris HCl (pH 7.80), 80 mM KCl, 10 mM MgCl2, 1 mM DTT, 0.01% BSA, 0.01% Tween, 5% glycerol) was transferred to the test wells (20 μL), except the low control wells (20 μL of assay buffer was added to the low control wells). The plate was then incubated at room temperature for 15 min. An equal volume (20 μL) of 100 μM ATP, 300 nM […] (single-stranded DNA (ssDNA) containing 50 thymine bases), 300 μM NADH, 6 mM PEP, 10 U/mL lactate dehydrogenase and 20 U/mL pyruvate kinase in assay buffer was added to all the test wells. The plate was then centrifuged at 1000 rpm for 1 min. The reaction was monitored for 60 min by measuring absorbance (λ=340 nm) in a Tecan Spark multimode plate reader every minute. The high control (DMSO with enzyme) with low absorbance intensity represents no inhibition of ATPase reaction while the low control (DMSO with buffer) with high absorbance intensity represents full inhibition of ATPase activity. Slope of the reaction progress curves were used to calculate the rate of ATP hydrolysis. The rates were used to determine the percent inhibition using a four-parameter inhibition model to generate IC50, Hill slope and max inhibition.
`COc1cnc(Cl)cc1-c1cc(C)ncc1C(=O)Nc1nnc(O[C@H]2CC[C@@]23CCOC3)s1` (racemic) [Example 292, rac-N-(5-(((1S,4S)-6-oxaspiro[3.4]octan-1-yl)oxy)-1,3,4-thiadiazol-2-yl)-2′-chloro-5′-methoxy-6-methyl-[4,4′-bipyridine]-3-carboxamide] came in with an IC50 of at most 200 nM.

In the case of `COc1cnc(Cl)cc1-c1cc(C)ncc1C(=O)Nc1nnc(O[C@@H]2CC[C@@]23CCOC3)s1` (racemic) [Example 295, rac-N-(5-(((1R,4S)-6-oxaspiro[3.4]octan-1-yl)oxy)-1,3,4-thiadiazol-2-yl)-2′-chloro-5′-methoxy-6-methyl-[4,4′-bipyridine]-3-carboxamide], the IC50 is at most 200 nM.

The experiment is the same for the next values; noted with them: Table 4; Pol theta (1-899) 5 nM, ATP, dT50 ssDNA.
`COc1cnc(Cl)cc1-c1cc(C)ncc1C(=O)Nc1nnc(O[C@H]2CC[C@@H](O)CC2)s1` (single isomer, unassigned) [Example 26, 2′-chloro-N-(5-(((1s,4s)-4-hydroxycyclohexyl)oxy)-1,3,4-thiadiazol-2-yl)-5′-methoxy-6-methyl-[4,4′-bipyridine]-3-carboxamide] came in with an IC50 of at most 200 nM.

`COc1cnc(Cl)cc1-c1cc(C)ncc1C(=O)Nc1nnc(O[C@H]2CC[C@H](O)CC2)s1` (single isomer, unassigned) [Example 27, 2′-chloro-N-(5-(((1r,4r)-4-hydroxycyclohexyl)oxy)-1,3,4-thiadiazol-2-yl)-5′-methoxy-6-methyl-[4,4′-bipyridine]-3-carboxamide]: the IC50 is at most 200 nM.

The molecule `COc1cnc(Cl)cc1-c1cc(C)ncc1C(=O)Nc1nnc(O[C@H]2CC[C@@H](O)C2)s1` (single isomer, unassigned) [Example 58] displayed an IC50 of at most 200 nM.

With `COc1cnc(Cl)cc1-c1cc(C)ncc1C(=O)Nc1nnc(O[C@@H]2CC[C@H](O)C2)s1` (single isomer, unassigned) [Example 59], the IC50 is at most 200 nM.

Consider `COc1nnc(NC(=O)c2cnc(C)cc2-c2cc([C@H](C)O)ncc2OC)s1` (single isomer, unassigned) [Example 68], for which the IC50 lay within 1000 to 10000 nM.

Take `COc1nnc(NC(=O)c2cnc(C)cc2-c2cc([C@@H](C)O)ncc2OC)s1` (single isomer, unassigned) [Example 69]: the IC50 was in the range of 1000 to 10000 nM.

`COc1cnc(Cl)cc1-c1cc(C)ncc1C(=O)Nc1nnc(O[C@H]2CCO[C@H]2C)s1` (single isomer, unassigned) [Example 76, 2′-chloro-5′-methoxy-6-methyl-N-(5-(((2r,3r)-2-methyltetrahydrofuran-3-yl)oxy)-1,3,4-thiadiazol-2-yl)-(4,4′-bipyridine)-3-carboxamide] came in with an IC50 of at most 200 nM.

Take `COc1cnc(Cl)cc1-c1cc(C)ncc1C(=O)Nc1nnc(O[C@H]2CCO[C@@H]2C)s1` (single isomer, unassigned) [Example 77, 2′-chloro-5′-methoxy-6-methyl-N-(5-(((2r,3s)-2-methyltetrahydrofuran-3-yl)oxy)-1,3,4-thiadiazol-2-yl)-(4,4′-bipyridine)-3-carboxamide]: the IC50 was at most 200 nM.

The same experiment, now with this note: Table 5; Pol theta (1-899) 5 nM, ATP, dT50 ssDNA.
For `COc1cnc(Cl)cc1-c1cc(C)ncc1C(=O)Nc1nnc(OC2CC(C)(O)C2)s1` (mixture of isomers) [Example 176, 2′-chloro-N-(5-(3-hydroxy-3-methylcyclobutoxy)-1,3,4-thiadiazol-2-yl)-5′-methoxy-6-methyl-(4,4′-bipyridine)-3-carboxamide], the IC50 is at most 200 nM.

In turn, `COc1cnc(Cl)cc1-c1cc(C)ncc1C(=O)Nc1nnc(O[C@H]2CCO[C@H]2C)s1` (racemic) [Example 92, rac-2′-Chloro-5′-methoxy-6-methyl-N-(5-(((2R,3R)-2-methyltetrahydrofuran-3-yl)oxy)-1,3,4-thiadiazol-2-yl)-(4,4′-bipyridine)-3-carboxamide] yielded an IC50 of 200 to 500 nM.

As to `COc1cnc(Cl)cc1-c1cc(C)ncc1C(=O)Nc1nnc(O[C@H]2CCO[C@@H]2C)s1` (racemic) [Example 93, rac-2′-Chloro-5′-methoxy-6-methyl-N-(5-(((2R,3S)-2-methyltetrahydrofuran-3-yl)oxy)-1,3,4-thiadiazol-2-yl)-(4,4′-bipyridine)-3-carboxamide], the IC50 is at most 200 nM.

Turning to `COc1cnc(Cl)cc1-c1cc(C)ncc1C(=O)Nc1nnc(O[C@H]2CC[C@H]2O)s1` (racemic) [Example 112, rac-2′-chloro-N-(5-((1R,2S)-2-hydroxycyclobutoxy)-1,3,4-thiadiazol-2-yl)-5′-methoxy-6-methyl-(4,4′-bipyridine)-3-carboxamide], the IC50 is 200 to 500 nM.

On to `COc1cnc(Cl)cc1-c1cc(C)ncc1C(=O)Nc1nnc(O[C@H]2CC[C@H](OC)C2)s1` (racemic) [Example 149, rac-2′-chloro-5′-methoxy-N-(5-(((1R,3R)-3-methoxycyclopentyl)oxy)-1,3,4-thiadiazol-2-yl)-6-methyl-(4,4′-bipyridine)-3-carboxamide], for which the IC50 was at most 200 nM.

In the case of `COc1cnc(Cl)cc1-c1cc(C)ncc1C(=O)Nc1nnc(O[C@H]2CC[C@@H](OC)C2)s1` (racemic) [Example 150, rac-2′-chloro-5′-methoxy-N-(5-(((1R,3S)-3-methoxycyclopentyl)oxy)-1,3,4-thiadiazol-2-yl)-6-methyl-(4,4′-bipyridine)-3-carboxamide], the IC50 is at most 200 nM.

`COc1cnc(Cl)c(F)c1-c1cc(C)ncc1C(=O)Nc1nnc(O[C@H]2CC[C@@H](O)C2)s1` (racemic) [Example 170, rac-2′-chloro-3′-fluoro-N-(5-(((1R,3S)-3-hydroxycyclopentyl)oxy)-1,3,4-thiadiazol-2-yl)-5′-methoxy-6-methyl-(4,4′-bipyridine)-3-carboxamide]: the concentration for half-maximal inhibition (IC50) was at most 200 nM.

On to `COc1cnc(Cl)cc1-c1cc(C)ncc1C(=O)Nc1nnc(O[C@H]2CCC[C@@](C)(O)C2)s1` (racemic) [Example 177, rac-2′-chloro-N-(5-(((1R,3S)-3-hydroxy-3-methylcyclohexyl)oxy)-1,3,4-thiadiazol-2-yl)-5′-methoxy-6-methyl-(4,4′-bipyridine)-3-carboxamide], for which the IC50 was in the range of 200 to 500 nM.

With `COc1cnc(Cl)cc1-c1cc(C)ncc1C(=O)Nc1nnc(O[C@H]2CCC[C@](C)(O)C2)s1` (racemic) [Example 178, rac-2′-chloro-N-(5-(((1R,3R)-3-hydroxy-3-methylcyclohexyl)oxy)-1,3,4-thiadiazol-2-yl)-5′-methoxy-6-methyl-(4,4′-bipyridine)-3-carboxamide], the IC50 is at most 200 nM.

Regarding `COc1cnc(Cl)cc1-c1cc(C)ncc1C(=O)Nc1nnc(O[C@@H]2CC[C@H]2O)s1` (single isomer, unassigned) [Example 114], the 50% inhibitory concentration (IC50) was at most 200 nM.

`COc1cnc(Cl)cc1-c1cc(C)ncc1C(=O)Nc1nnc(O[C@H]2CCO[C@@H]2C)s1` (single isomer, unassigned) [Example 115] came in with an IC50 of at most 200 nM.

In the case of `COc1cnc(Cl)cc1-c1cc(C)ncc1C(=O)Nc1nnc(O[C@@H]2CCO[C@H]2C)s1` (single isomer, unassigned) [Example 116], the IC50 was at most 200 nM.

In turn, `COc1cnc(Cl)cc1-c1cc(C)ncc1C(=O)Nc1nnc(O[C@H]2COC3(CC3)C2)s1` (single isomer, unassigned) [Example 117] yielded an IC50 of at most 200 nM.

For `COc1cnc(Cl)cc1-c1cc(C)ncc1C(=O)Nc1nnc(O[C@@H]2CC[C@H]2O)s1` (single isomer, unassigned) [Example 118], the IC50 was at most 200 nM.

Turning to `COc1cnc(Cl)cc1-c1cc(C)ncc1C(=O)Nc1nnc(O[C@H]2CC[C@@H]2O)s1` (single isomer, unassigned) [Example 119], the IC50 was at most 200 nM.

In turn, `COc1cnc(Cl)cc1-c1cc(C)ncc1C(=O)Nc1nnc(O[C@H]2CC[C@@H](OC)CC2)s1` (single isomer, unassigned) [Example 124, 2′-chloro-5′-methoxy-N-(5-(((1s,4s)-4-methoxycyclohexyl)oxy)-1,3,4-thiadiazol-2-yl)-6-methyl-(4,4′-bipyridine)-3-carboxamide] showed an IC50 of at most 200 nM.

`COc1cnc(Cl)cc1-c1cc(C)ncc1C(=O)Nc1nnc(O[C@H]2CC[C@H](OC)CC2)s1` (single isomer, unassigned) [Example 125, 2′-chloro-5′-methoxy-N-(5-(((1r,4r)-4-methoxycyclohexyl)oxy)-1,3,4-thiadiazol-2-yl)-6-methyl-(4,4′-bipyridine)-3-carboxamide] registered an IC50 of at most 200 nM.

Regarding `COc1cnc(Cl)cc1-c1cc(C)ncc1C(=O)Nc1nnc(O[C@@H]2COCC2(F)F)s1` (single isomer, unassigned) [Example 127], the IC50 is at most 200 nM.

The molecule `COc1cnc(Cl)cc1-c1cc(C)ncc1C(=O)Nc1nnc(O[C@H]2COCC2(F)F)s1` (single isomer, unassigned) [Example 128] registered an IC50 of at most 200 nM.

As to `COc1cnc(Cl)cc1-c1cc(C)ncc1C(=O)Nc1nnc(O[C@@H]2COC(C)(C)C2)s1` (single isomer, unassigned) [Example 130], the IC50 is at most 200 nM.

In general, IC50 refers to the concentration needed to halve the response being measured. High values mean weaker potency in that assay, low ones greater potency in that assay.
